Assay results: article PMC8617627, “Novel DYRK1A Inhibitor Rescues Learning and Memory Deficits in a Mouse Model of Down Syndrome” (Pharmaceuticals, 2021)
Where two headings read alike, the source gives them in different places.

Assays:
Assay in all cases: Kinase profile (33P ATP filter binding)
Assay type in all cases: biochemical
Details in all cases: read-out: Remaining protein kinase activity
EPH-A4 = EPH-A4 (Homo sapiens, UniProt P54764)
ERK5 = ERK5 (Homo sapiens, UniProt Q13164)
HER4 = HER4 (Homo sapiens, UniProt Q15303)
IGF-1R = IGF-1R (Homo sapiens, UniProt P08069)
LKB1 = target: T1, LKB1 (Homo sapiens, UniProt Q15831)
T1 sequence (Q15831 1-433): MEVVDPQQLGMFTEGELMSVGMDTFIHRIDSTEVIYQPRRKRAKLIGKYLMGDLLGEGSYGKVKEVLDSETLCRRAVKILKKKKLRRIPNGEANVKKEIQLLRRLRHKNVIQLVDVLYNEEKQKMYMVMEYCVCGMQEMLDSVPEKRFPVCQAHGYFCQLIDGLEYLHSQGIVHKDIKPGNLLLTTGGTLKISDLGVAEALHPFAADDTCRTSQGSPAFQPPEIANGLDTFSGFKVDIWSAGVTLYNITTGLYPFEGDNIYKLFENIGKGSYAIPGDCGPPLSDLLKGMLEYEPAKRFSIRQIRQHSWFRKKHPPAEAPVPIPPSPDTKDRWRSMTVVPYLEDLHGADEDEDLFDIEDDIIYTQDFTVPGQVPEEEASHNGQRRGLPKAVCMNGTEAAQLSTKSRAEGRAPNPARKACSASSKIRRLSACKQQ
T1 sequence (Q7RTN6 1-431 partner): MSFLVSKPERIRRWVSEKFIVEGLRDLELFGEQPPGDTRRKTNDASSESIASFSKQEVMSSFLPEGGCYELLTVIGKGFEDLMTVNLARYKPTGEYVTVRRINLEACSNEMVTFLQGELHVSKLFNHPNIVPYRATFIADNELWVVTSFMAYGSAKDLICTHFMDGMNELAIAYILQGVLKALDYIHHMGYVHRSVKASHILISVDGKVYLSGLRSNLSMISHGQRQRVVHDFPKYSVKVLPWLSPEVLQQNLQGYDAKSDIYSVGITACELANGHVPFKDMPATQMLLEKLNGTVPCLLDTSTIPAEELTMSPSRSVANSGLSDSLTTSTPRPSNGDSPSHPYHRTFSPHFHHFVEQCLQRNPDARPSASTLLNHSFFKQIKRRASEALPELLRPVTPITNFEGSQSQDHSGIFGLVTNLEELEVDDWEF
T1 sequence (Q9Y376 1-341 partner): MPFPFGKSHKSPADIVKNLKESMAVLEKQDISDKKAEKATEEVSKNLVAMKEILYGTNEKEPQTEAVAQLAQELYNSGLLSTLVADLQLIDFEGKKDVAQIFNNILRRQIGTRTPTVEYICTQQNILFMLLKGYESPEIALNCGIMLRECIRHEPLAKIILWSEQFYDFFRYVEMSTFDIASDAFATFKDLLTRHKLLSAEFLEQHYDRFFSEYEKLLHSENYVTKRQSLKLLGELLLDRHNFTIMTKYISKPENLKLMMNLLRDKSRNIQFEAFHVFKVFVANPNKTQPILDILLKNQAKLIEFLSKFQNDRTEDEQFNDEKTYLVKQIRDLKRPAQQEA

Lck = Lck (Homo sapiens, UniProt P06239)
MINK1 = MINK1 (Homo sapiens, UniProt Q8N4C8)
MST2 = target: T2, MST2 (Homo sapiens, UniProt Q13188)
T2 sequence (Q13188 1-491): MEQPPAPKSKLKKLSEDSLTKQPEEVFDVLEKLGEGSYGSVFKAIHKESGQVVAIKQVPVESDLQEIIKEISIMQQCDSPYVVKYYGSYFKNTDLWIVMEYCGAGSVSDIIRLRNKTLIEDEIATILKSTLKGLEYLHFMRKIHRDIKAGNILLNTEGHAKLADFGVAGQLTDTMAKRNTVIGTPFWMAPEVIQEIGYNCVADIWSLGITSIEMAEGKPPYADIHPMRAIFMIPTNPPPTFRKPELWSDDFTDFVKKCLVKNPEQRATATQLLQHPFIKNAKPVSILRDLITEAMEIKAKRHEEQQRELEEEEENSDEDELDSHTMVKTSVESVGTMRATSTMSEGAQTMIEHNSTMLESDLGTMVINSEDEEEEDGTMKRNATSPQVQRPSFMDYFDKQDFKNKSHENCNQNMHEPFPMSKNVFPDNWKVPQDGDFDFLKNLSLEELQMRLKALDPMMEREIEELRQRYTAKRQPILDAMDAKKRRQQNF

PDGFRA = PDGFRA (Homo sapiens, UniProt P16234)
PKCa = PKCa (Homo sapiens, UniProt P17252)
SRPK1 = SRPK1 (Homo sapiens, UniProt Q96SB4)
TIE2 = TIE2 (Homo sapiens, UniProt Q02763)
TIE2, sequence (Q02763 23-1124): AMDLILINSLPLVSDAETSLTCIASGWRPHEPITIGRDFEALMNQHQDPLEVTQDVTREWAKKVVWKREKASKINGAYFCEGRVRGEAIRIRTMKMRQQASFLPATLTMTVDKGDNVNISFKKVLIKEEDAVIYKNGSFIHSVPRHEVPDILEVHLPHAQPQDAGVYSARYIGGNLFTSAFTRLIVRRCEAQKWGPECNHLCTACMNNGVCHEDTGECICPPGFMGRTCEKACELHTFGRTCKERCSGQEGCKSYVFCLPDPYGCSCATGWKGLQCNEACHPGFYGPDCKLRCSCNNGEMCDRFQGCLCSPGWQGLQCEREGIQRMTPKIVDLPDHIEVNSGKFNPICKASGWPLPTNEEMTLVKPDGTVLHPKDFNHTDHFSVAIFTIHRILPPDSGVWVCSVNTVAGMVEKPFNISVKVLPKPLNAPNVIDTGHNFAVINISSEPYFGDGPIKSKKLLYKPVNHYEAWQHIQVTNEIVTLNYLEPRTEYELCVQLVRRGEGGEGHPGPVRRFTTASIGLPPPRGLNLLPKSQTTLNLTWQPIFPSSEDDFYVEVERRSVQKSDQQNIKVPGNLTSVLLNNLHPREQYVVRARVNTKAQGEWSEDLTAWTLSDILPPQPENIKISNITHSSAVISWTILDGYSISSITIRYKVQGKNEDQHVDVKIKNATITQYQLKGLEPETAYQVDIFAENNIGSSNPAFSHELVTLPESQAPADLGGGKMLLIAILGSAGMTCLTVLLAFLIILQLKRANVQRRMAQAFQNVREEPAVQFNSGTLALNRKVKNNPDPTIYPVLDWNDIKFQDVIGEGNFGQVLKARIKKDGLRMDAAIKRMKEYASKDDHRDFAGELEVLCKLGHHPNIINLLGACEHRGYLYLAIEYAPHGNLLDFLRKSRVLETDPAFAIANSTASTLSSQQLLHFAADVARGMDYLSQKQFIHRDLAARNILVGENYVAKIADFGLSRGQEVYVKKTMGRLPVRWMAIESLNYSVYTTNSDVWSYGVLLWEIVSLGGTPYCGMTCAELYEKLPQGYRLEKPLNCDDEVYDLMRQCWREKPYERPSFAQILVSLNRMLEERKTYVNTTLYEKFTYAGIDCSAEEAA

SRPK1, sequence (Q96SB4 whole entry): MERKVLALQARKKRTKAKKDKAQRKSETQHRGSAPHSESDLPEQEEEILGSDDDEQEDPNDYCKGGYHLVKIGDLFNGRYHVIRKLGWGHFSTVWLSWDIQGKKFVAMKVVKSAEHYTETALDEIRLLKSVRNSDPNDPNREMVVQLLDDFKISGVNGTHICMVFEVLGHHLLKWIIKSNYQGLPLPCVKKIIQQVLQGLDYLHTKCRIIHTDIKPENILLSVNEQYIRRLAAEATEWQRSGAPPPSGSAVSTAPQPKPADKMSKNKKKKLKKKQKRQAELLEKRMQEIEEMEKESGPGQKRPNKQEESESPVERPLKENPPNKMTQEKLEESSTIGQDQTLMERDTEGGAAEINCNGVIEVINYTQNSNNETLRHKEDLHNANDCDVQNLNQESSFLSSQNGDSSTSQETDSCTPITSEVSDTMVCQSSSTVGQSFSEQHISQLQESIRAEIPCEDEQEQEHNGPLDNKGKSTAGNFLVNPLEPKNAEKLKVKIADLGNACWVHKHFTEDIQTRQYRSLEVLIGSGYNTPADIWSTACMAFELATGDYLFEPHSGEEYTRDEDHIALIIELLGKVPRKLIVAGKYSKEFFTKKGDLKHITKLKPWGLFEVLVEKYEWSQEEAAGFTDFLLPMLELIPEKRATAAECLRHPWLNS
ERK5, sequence (Q13164 whole entry, species assumed): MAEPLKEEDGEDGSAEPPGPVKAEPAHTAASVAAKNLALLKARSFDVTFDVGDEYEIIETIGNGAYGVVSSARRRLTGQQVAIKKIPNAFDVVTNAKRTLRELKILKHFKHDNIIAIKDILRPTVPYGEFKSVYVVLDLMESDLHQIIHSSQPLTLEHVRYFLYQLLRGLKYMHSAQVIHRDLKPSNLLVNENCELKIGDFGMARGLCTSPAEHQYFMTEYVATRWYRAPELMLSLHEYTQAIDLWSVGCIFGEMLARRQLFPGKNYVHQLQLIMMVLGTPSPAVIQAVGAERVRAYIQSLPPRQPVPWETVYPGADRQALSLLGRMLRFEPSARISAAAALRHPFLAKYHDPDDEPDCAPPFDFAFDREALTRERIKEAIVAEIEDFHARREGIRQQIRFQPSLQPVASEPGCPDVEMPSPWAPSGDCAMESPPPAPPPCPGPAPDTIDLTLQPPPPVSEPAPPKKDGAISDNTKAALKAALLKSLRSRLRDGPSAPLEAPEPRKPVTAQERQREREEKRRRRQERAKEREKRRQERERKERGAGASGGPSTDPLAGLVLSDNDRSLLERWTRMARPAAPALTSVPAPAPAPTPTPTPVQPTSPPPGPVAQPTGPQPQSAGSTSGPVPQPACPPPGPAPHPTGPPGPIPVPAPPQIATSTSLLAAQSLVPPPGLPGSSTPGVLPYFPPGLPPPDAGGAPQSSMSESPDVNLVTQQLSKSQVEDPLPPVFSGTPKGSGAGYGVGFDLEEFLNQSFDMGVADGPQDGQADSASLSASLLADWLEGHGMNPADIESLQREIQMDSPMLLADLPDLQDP
MINK1, sequence (Q8N4C8 whole entry): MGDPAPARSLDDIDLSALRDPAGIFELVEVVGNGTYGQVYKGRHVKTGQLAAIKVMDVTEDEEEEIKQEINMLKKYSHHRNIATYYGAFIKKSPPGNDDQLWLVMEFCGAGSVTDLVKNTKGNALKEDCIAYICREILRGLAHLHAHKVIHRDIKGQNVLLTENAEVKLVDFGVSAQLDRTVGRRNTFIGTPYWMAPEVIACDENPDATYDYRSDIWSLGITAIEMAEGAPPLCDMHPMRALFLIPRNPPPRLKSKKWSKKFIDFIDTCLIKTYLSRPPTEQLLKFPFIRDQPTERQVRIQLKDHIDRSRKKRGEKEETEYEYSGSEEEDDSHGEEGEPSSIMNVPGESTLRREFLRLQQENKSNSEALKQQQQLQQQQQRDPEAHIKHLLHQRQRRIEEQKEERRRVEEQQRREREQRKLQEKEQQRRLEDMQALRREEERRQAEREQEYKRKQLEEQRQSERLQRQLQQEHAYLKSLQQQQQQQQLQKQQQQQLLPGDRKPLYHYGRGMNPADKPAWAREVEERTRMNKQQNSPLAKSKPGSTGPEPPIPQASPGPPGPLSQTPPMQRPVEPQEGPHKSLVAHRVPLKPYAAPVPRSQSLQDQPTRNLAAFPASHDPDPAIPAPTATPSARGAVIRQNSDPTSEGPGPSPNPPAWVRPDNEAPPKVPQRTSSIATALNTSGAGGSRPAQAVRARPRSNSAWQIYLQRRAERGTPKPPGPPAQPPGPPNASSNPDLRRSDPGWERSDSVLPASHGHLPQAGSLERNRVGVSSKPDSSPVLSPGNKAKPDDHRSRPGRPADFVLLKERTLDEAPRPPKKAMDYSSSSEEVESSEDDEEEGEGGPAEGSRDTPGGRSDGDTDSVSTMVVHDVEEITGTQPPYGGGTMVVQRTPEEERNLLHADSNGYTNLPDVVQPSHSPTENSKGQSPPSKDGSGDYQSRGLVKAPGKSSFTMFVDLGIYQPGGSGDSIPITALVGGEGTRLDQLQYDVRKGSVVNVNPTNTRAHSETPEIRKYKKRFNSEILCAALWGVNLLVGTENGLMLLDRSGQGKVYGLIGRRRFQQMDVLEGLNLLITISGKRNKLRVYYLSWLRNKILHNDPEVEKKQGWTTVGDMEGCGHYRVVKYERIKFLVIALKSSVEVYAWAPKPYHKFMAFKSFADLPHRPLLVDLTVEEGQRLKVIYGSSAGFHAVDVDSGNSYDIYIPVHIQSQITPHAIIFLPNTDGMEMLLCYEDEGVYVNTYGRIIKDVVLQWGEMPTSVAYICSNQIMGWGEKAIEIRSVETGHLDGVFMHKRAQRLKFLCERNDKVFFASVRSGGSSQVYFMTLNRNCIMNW
PDGFRA, sequence (P16234 24-1089): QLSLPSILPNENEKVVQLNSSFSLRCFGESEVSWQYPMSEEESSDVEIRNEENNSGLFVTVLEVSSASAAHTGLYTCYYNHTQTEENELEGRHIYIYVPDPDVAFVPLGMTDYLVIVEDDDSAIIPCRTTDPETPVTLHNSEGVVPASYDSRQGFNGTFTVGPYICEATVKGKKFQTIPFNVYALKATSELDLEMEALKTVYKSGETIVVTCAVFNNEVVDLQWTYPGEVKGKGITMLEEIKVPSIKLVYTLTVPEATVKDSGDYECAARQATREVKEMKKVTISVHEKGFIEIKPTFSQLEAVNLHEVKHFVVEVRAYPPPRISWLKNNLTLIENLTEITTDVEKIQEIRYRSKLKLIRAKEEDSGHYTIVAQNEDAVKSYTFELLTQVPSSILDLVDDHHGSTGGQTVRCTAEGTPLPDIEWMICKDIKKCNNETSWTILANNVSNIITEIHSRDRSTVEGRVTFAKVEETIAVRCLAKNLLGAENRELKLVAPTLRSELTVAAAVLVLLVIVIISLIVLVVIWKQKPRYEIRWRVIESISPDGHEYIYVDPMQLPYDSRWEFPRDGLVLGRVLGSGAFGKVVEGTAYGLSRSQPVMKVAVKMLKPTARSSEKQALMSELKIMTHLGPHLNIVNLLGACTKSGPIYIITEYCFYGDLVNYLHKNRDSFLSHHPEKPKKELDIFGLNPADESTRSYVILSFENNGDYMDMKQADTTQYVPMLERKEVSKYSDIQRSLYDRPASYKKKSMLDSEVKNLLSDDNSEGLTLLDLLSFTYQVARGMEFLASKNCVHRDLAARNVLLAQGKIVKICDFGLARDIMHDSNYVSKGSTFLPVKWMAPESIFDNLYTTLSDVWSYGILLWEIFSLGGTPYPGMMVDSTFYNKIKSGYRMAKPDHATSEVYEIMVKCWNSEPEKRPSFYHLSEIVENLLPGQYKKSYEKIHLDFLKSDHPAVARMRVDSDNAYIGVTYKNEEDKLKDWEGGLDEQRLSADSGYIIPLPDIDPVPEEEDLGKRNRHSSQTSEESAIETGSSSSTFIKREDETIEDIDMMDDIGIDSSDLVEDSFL

COc1ccc2sc(-c3cncc(N)c3)nc2c1 [compound 1, 5-(5-Methoxybenzo[d]thiazol-2-yl)pyridin-3-amine]
remaining activity at 1 µM (EPH-A4; EPH-A4, 1 μM): 89%
remaining activity at 100 µM (EPH-A4; EPH-A4, 100 μM): 85%
remaining activity at 1 µM (ERK5; ERK5, 1 μM): 66%
remaining activity at 100 µM (ERK5; ERK5, 100 μM): 37%
remaining activity at 1 µM (HER4; HER4, 1 μM): 104%
remaining activity at 100 µM (HER4; HER4, 100 μM): 16%
remaining activity at 1 µM (IGF-1R; IGF-1R, 1 μM): 96%
remaining activity at 100 µM (IGF-1R; IGF-1R, 100 μM): 68%
remaining activity at 1 µM (LKB1; LKB1, 1 μM): 109%
remaining activity at 100 µM (LKB1; LKB1, 100 μM): 161%
remaining activity at 1 µM (Lck; Lck, 1 μM): 106%
remaining activity at 100 µM (Lck; Lck, 100 μM): 52%
remaining activity at 1 µM (MINK1; MINK1, 1 μM): 108%
remaining activity at 100 µM (MINK1; MINK1, 100 μM): 36%
remaining activity at 1 µM (MST2; MST2, 1 μM): 124%
remaining activity at 100 µM (MST2; MST2, 100 μM): 32%
remaining activity at 1 µM (PDGFRA; PDGFRA, 1 μM): 101%
remaining activity at 100 µM (PDGFRA; PDGFRA, 100 μM): 26%
remaining activity at 1 µM (PKCa; PKCa, 1 μM): 110%
remaining activity at 100 µM (PKCa; PKCa, 100 μM): 63%
remaining activity at 1 µM (SRPK1; SRPK1, 1 μM): 108%
remaining activity at 100 µM (SRPK1; SRPK1, 100 μM): 55%
remaining activity at 1 µM (TIE2; TIE2, 1 μM): 135%
remaining activity at 100 µM (TIE2; TIE2, 100 μM): 85%

COc1ccc2sc(-c3cncc(NC(C)=O)c3)nc2c1 [PST-001, N-(5-(5-Methoxybenzo[d]thiazol-2-yl)pyridin-3-yl)acetamide]
remaining activity at 1 µM (EPH-A4): 117%
remaining activity at 100 µM (EPH-A4): 106%
remaining activity at 1 µM (ERK5): 72%
remaining activity at 100 µM (ERK5): 51%
remaining activity at 1 µM (HER4): 103%
remaining activity at 100 µM (HER4): 94%
remaining activity at 1 µM (IGF-1R): 104%
remaining activity at 100 µM (IGF-1R): 104%
remaining activity at 1 µM (LKB1): 123%
remaining activity at 100 µM (LKB1): 150%
remaining activity at 1 µM (Lck): 93%
remaining activity at 100 µM (Lck): 100%
remaining activity at 1 µM (MINK1): 104%
remaining activity at 100 µM (MINK1): 88%
remaining activity at 1 µM (MST2): 120%
remaining activity at 100 µM (MST2): 54%
remaining activity at 1 µM (PDGFRA): 100%
remaining activity at 100 µM (PDGFRA): 73%
remaining activity at 1 µM (PKCa): 119%
remaining activity at 100 µM (PKCa): 85%
remaining activity at 1 µM (SRPK1): 115%
remaining activity at 100 µM (SRPK1): 108%
remaining activity at 1 µM (TIE2): 129%
remaining activity at 100 µM (TIE2): 133%
